From ChEMBL document CHEMBL1201862, “PubChem BioAssay data set” (2004)
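Step 1: Grow cells in 96-well plates. Step 2: Expose to compound for 48 hours at 5 concentrations. Step 3: Interpolate endpoints linearly; if unreached, use highest concentration. GI50 is the concentration that inhibits growth by half.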 Active and inactive are the calls of the source. No stated cut-off is given here; in the data, active = GI50 up to about 1.1 µM and inactive = higher.

What was measured:
Experiment in all cases: NCI-60 cell line screen, 48 h
[1] = tested on: 786-0
[2] = tested on: A498
[3] = tested on: A549
[4] = tested on: BT-549
[5] = tested on: CAKI-1
[6] = tested on: CCRF-CEM
[7] = tested on: COLO 205
[8] = tested on: DU-145
[9] = tested on: EKVX
[10] = tested on: HCC 2998
[11] = tested on: HCT-116
[12] = tested on: HCT-15
[13] = tested on: HL-60
[14] = tested on: HOP-62
[15] = tested on: HOP-92
[16] = tested on: HT-29
[17] = tested on: Hs-578T
[18] = tested on: IGROV-1
[19] = tested on: KM12
[20] = tested on: LOX IMVI
[21] = tested on: M14
[22] = tested on: MCF7
[23] = tested on: MDA-MB-231
[24] = tested on: MDA-MB-435
[25] = tested on: MDA-N
[26] = tested on: MOLT-4
[27] = tested on: Malme-3M
[28] = tested on: NCI-H226
[29] = tested on: NCI-H23
[30] = tested on: NCI-H460
[31] = tested on: NCI/ADR-RES
[32] = tested on: OVCAR-3
[33] = tested on: OVCAR-4
[34] = tested on: OVCAR-5
[35] = tested on: OVCAR-8
[36] = tested on: RPMI-8226
[37] = tested on: RXF 393
[38] = tested on: SF-268
[39] = tested on: SF-295
[40] = tested on: SF-539
[41] = tested on: SK-MEL-28
[42] = tested on: SK-MEL-2
[43] = tested on: SK-MEL-5
[44] = tested on: SK-OV-3
[45] = tested on: SN12C
[46] = tested on: SNB-19
[47] = tested on: SR
[48] = tested on: SW-620
[49] = tested on: T47D
[50] = tested on: U-251
[51] = tested on: UACC-257
[52] = tested on: UACC-62
[53] = tested on: UO-31
[54] = tested on: ACHN
[55] = tested on: K562
[56] = tested on: NCI-H522
[57] = tested on: PC-3
[58] = tested on: SNB-75
[59] = tested on: TK-10

Cc1c(N2C(=O)/C(=C/c3ccc(N(CCC#N)CCC#N)cc3)N=C2c2ccccc2)c(=O)n(-c2ccccc2)n1C
GI50 [1]: > 100 µM (inactive)
GI50 [2]: > 100 µM (inactive)
GI50 [3]: > 100 µM (inactive)
GI50 [4]: > 100 µM (inactive)
GI50 [5]: > 100 µM (inactive)
GI50 [6]: 59.6 µM (inactive)
GI50 [7]: > 100 µM (inactive)
GI50 [8]: > 100 µM (inactive)
GI50 [9]: > 100 µM (inactive)
GI50 [10]: > 100 µM (inactive)
GI50 [11]: > 100 µM (inactive)
GI50 [12]: 70 µM
GI50 [13]: 96.2 µM (inactive)
GI50 [14]: > 100 µM (inactive)
GI50 [15]: > 100 µM (inactive)
GI50 [16]: > 100 µM (inactive)
GI50 [17]: > 100 µM (inactive)
GI50 [18]: > 100 µM (inactive)
GI50 [19]: > 100 µM (inactive)
GI50 [20]: > 100 µM (inactive)
GI50 [21]: > 100 µM (inactive)
GI50 [22]: > 100 µM (inactive)
GI50 [23]: > 100 µM (inactive)
GI50 [24]: > 100 µM (inactive)
GI50 [25]: > 100 µM (inactive)
GI50 [26]: 75.7 µM (inactive)
GI50 [27]: > 100 µM (inactive)
GI50 [28]: > 100 µM (inactive)
GI50 [29]: > 100 µM (inactive)
GI50 [30]: > 100 µM (inactive)
GI50 [31]: > 100 µM (inactive)
GI50 [32]: > 100 µM (inactive)
GI50 [33]: > 100 µM (inactive)
GI50 [34]: > 100 µM (inactive)
GI50 [35]: > 100 µM (inactive)
GI50 [36]: > 100 µM (inactive)
GI50 [37]: > 100 µM (inactive)
GI50 [38]: > 100 µM (inactive)
GI50 [39]: > 100 µM (inactive)
GI50 [40]: > 100 µM (inactive)
GI50 [41]: > 100 µM (inactive)
GI50 [42]: > 100 µM (inactive)
GI50 [43]: > 100 µM (inactive)
GI50 [44]: > 100 µM (inactive)
GI50 [45]: > 100 µM (inactive)
GI50 [46]: > 100 µM (inactive)
GI50 [47]: > 100 µM (inactive)
GI50 [48]: > 100 µM (inactive)
GI50 [49]: > 100 µM (inactive)
GI50 [50]: > 100 µM (inactive)
GI50 [51]: > 100 µM (inactive)
GI50 [52]: > 100 µM (inactive)
GI50 [53]: > 100 µM (inactive)

N/C1=C/C(=O)NC(=O)c2c(c3ccccc3oc2=O)C1
GI50 [1]: > 100 µM (inactive)
GI50 [2]: > 100 µM (inactive)
GI50 [3]: > 100 µM (inactive)
GI50 [54]: > 100 µM (inactive)
GI50 [4]: > 100 µM (inactive)
GI50 [5]: > 100 µM (inactive)
GI50 [6]: > 100 µM (inactive)
GI50 [7]: > 100 µM (inactive)
GI50 [8]: > 100 µM (inactive)
GI50 [9]: 46.7 µM (inactive)
GI50 [10]: > 100 µM (inactive)
GI50 [11]: > 100 µM (inactive)
GI50 [12]: > 100 µM
GI50 [13]: > 100 µM (inactive)
GI50 [14]: > 100 µM (inactive)
GI50 [15]: > 100 µM (inactive)
GI50 [16]: > 100 µM (inactive)
GI50 [17]: > 100 µM (inactive)
GI50 [18]: > 100 µM (inactive)
GI50 [55]: > 100 µM (inactive)
GI50 [19]: > 100 µM (inactive)
GI50 [20]: > 100 µM (inactive)
GI50 [21]: > 100 µM (inactive)
GI50 [23]: > 100 µM (inactive)
GI50 [24]: > 100 µM (inactive)
GI50 [25]: > 100 µM (inactive)
GI50 [26]: > 100 µM (inactive)
GI50 [27]: > 100 µM (inactive)
GI50 [28]: > 100 µM (inactive)
GI50 [29]: > 100 µM (inactive)
GI50 [30]: > 100 µM (inactive)
GI50 [56]: > 100 µM (inactive)
GI50 [31]: > 100 µM (inactive)
GI50 [32]: > 100 µM (inactive)
GI50 [33]: > 100 µM (inactive)
GI50 [34]: > 100 µM (inactive)
GI50 [35]: > 100 µM (inactive)
GI50 [57]: > 100 µM (inactive)
GI50 [36]: 62.8 µM (inactive)
GI50 [37]: > 100 µM (inactive)
GI50 [38]: > 100 µM (inactive)
GI50 [41]: > 100 µM (inactive)
GI50 [42]: > 100 µM (inactive)
GI50 [45]: > 100 µM (inactive)
GI50 [46]: > 100 µM (inactive)
GI50 [58]: > 100 µM (inactive)
GI50 [47]: > 100 µM (inactive)
GI50 [48]: > 100 µM (inactive)
GI50 [49]: > 100 µM (inactive)
GI50 [59]: > 100 µM (inactive)
GI50 [50]: > 100 µM (inactive)
GI50 [51]: > 100 µM (inactive)
GI50 [52]: > 100 µM (inactive)
GI50 [53]: > 100 µM (inactive)
